In patent publication US6630496B1, “Inhibitors of phospholipase enzymes” (Genetics Institute LLC, priority 1996, dated 2003):
Read-outs that look alike come from different tables or passages of the source.

Legend:
cPLA2 [1] = target: T1, cPLA2 (Homo sapiens, UniProt P47712); test: Soluble substrate assay (LysoPC); format: biochemical
T1 sequence (P47712 1-749): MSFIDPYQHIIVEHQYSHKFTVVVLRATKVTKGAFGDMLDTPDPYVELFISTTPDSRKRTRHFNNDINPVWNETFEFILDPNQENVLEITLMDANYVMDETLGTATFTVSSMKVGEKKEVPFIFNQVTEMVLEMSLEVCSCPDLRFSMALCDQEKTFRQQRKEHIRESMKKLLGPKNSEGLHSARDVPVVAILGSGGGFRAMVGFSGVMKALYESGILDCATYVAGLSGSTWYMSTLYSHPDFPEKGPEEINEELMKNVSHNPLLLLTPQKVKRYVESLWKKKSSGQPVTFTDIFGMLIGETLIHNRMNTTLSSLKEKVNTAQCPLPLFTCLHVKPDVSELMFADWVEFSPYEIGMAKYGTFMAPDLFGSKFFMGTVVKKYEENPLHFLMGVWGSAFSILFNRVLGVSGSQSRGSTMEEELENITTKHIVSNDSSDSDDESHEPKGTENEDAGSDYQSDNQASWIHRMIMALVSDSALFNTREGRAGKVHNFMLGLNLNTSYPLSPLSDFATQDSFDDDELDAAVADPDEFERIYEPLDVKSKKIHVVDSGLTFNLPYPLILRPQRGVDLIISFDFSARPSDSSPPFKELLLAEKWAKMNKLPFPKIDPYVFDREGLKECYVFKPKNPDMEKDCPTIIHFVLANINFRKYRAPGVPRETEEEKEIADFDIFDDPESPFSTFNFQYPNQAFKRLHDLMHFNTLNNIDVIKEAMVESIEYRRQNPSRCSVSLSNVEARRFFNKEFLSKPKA
Method: (b) Soluble Substrate Assay (LysoPC)
The lipid was resuspended by vortexing 80 mM Hepes pH 7.5, 1 mM EDTA (1.2×final concentration). A typical assay consisted of lipid suspension (85 μl) to which was added consecutively the inhibitor (5 μl in DMSO) and cPLA2, 200 ng in 80 mM Hepes pH 7.5, 2 mM DTT and […]. This assay was conducted by either the manual assay or automated assay protocol described below.

cPLA2 [2] = target: T1, cPLA2; test: Coumarine assay (7-hydroxycoumarinyl 6-heptenoate hydrolysis); format: biochemical
Method: 7-hydroxycoumarinyl 6-heptenoate was used as a monomeric substrate for cPLA2 as reported previously (Huang, Z. et al., 1994, Analytical Biochemistry 222, 110-115). Inhibitors were mixed with 200 μL assay buffer (80 mM Hepes, pH 7.5, 1 mM EDTA) containing 60 μM 7-hydroxycoumarinyl 6-heptenoate. The reaction was initiated by adding 4 μg cPLA2 in 50 μL assay buffer. Hydrolysis of the 7-hydroxycoumarinyl 6-heptenoate ester was monitored in a fluorometer by exciting at 360 nm and monitoring emission at 460 nm. Enzyme activity is proportional to the increasein emission at 460 nm per minute. In the presence of a cPLA2 inhibitor, the rate of increase is less.

[3] = tested on: carrageenan-induced footpad edema; test: Rat carrageenan-induced footpad edema test; format: in vivo; details: iv, read-out: % inhibition of rat carrageenan-induced footpad edema
Method: Compounds of the present invention were also tested for in vivo activity in a rat paw edema test according to the procedure described in Example 89.
Rat Carrageenan-Induced Footpad Edema Test
Each compound was suspended in 0.3 ml absolute ethanol, 0.1 ml Tween-80 and 2.0 ml Dulbecco's PBS (without calcium or magnesium). To this mixture, 0.1 ml 1N NaOH was added. After solution was complete, additional amounts of PBS were added to adjust the concentration to 1 mg/ml. All comounds remained in solution. Compounds were administered i.v. in a volumne of 5 ml/kg to male Sprague Dawley rats at the same time that edema was induced by injection of 0.05 ml of 1% Type IV carrageenan into the hind footpad. Footpad volume was measured before dosing with compound and 3 hours after dosing with carageenan.

[4] = NA = inhibitory activity not detected, read-out: IC50 (μM) Lyso PC
[5] = 60 μM 7-hydroxycoumarinyl 6-heptenoate, read-out: IC50 (μM) Coumarine
[6] = 1 mg/ml, 5 ml/kg, male Sprague Dawley rats, footpad volume 3 hours after carrageenan

Structure (SMILES): CCC(C)(C)c1ccc(OCC(=O)N2c3ccc(OCc4ccccc4)cc3CC2CSc2ccccc2C(=O)O)c(C(C)(C)CC)c1 (stereo not drawn) [Example 67, 2-(2-(-5-Benzyloxy-1-(2,4-bis(1,1-dimethy)propyl)phenoxyacetyl)indolinyl)methylthiobenzoic Acid]
- IC50 (cPLA2 [1]; [4]): 0.22 µM
- IC50 (cPLA2 [2]; [5]): 10 µM
- inhibition in vivo at 1000 µg/mL, 5 mg/kg [3, 6]: 17.5%

Structure (SMILES): O=C(CSCC1Cc2cc(OCc3ccc4ccccc4n3)ccc2N1C(=O)COc1cc(C(F)(F)F)cc(C(F)(F)F)c1)Nc1cc(C(F)(F)F)cc(C(F)(F)F)c1 (stereo not drawn) [Example 50]
- IC50 (cPLA2 [1]; [4]): 4.4 µM
- IC50 (cPLA2 [2]; [5]): > 50 µM
- inhibition in vivo at 1000 µg/mL, 5 mg/kg [3, 6]: 11.7%

Structure (SMILES): CCC(C)(C)c1ccc(OCC(=O)N2c3ccc(OCc4ccccc4)cc3CC2CSCC(=O)Nc2cccc(C(=O)O)c2)c(C(C)(C)CC)c1 (stereo not drawn) [Example 17, 3-(2-(-5-Benzyloxy-1-(2,4-bis(1,1-dimethy)propyl)phenoxyacetyl)indolinyl)methylthioacetamidobenzoic Acid]
- IC50 (cPLA2 [1]; [4]): 0.32 µM
- IC50 (cPLA2 [2]; [5]): 6 µM
- inhibition in vivo at 1000 µg/mL, 5 mg/kg [3, 6]: 29.3%

Structure (SMILES): O=C(O)c1cccc(NC(=O)c2cc3cc(OCc4ccccc4)ccc3n2Cc2ccc(COc3cc(C(F)(F)F)cc(C(F)(F)F)c3)cc2)c1 [Example 8]
- IC50 (cPLA2 [1]): 0.11 µM
- IC50 (cPLA2 [2]): 3.8 µM
- inhibition in vivo at 1000 µg/mL, 5 mg/kg ([3]; 3 h): 29%
